# Assay results taken from US5731334A, “Method for treating cancer using taxoid onium salt prodrugs” (priority 1995, dated 1998).
# Entries after “also recorded” stand apart in the source; their conditions may differ. Where two headings read alike, the source gives them in different places.
# Tests used:
# [1] = system: OVCAR-3 ovarian carcinoma cells; assay: XTT dye binding cytotoxicity assay, OVCAR-3; assay type: cell-based; conditions: Homo sapiens
# Procedure: (§1) All cell lines described herein were obtained from the ATCC and maintained in media formulations as recommended by the supplier. The cell lines were tested for mycoplasma contamination prior to incubation at 37° C. in 5% carbon dioxide. Normal human dermal fibroblasts, peripheral blood lymphoblasts and mammary epithelial cells were obtained from Clonogenic Cor., San Diego, Calif. and were maintained under the above incubation conditions in special media provided by the supplier.
# (§2) Antiproliferative activities of the onium salts were determined using the XTT dye binding assay. Cells were harvested with trypsin/EDTA (Irvine Scientific), washed, resuspended in the appropriate medium, and counted in a hemocytometer using Trypan Blue to determine viability. Then 10^4 cells/well were added to 96 well microtiter plates and incubated for 24 hours before addition of drug at concentrations in the range of 10^-4 to 10^-13 molar by direct addition from DMSO solutions. After 72 hours, XTT binding dye was added and incubation was continued for 4 hours. The inhibition of cell proliferation was quantified using a Molecular Devices Microplate Reader. The absorbance of XTT was measured at […]. The concentration of drug which inhibited growth of cells by 50% was calculated from duplicated determinations.
# [2] = system: intact Molt-4 cells; assay: Competition binding of tritiated compounds to intact Molt-4 cells; set-up: species or system human; conditions: calculated from slopes of linear portions of curves in FIG. 3; read-out: binding constant
# Procedure: The competition by nonradioactive taxol or c-2'-MPA-taxol for the binding of 1×10^-9 M tritiated compounds by intact Molt-4 cells is illustrated in FIG. 3. Tritiated taxol (Moravek Corp.) was treated with 2-fluoropyridiunium tosylate according to the method of Nicolaou et al. to yield the C-2'-MPT-^3 H-taxol. (Angew. Chem., Int. Ed. 1994: vol. 34, pp. 1583-1587.) Six well plates were incubated with 10^6 Molt-4 cells in 50 mM phosphate buffered saline (PBS) or PRPMI media to which 10^-9 M of the radiolabeled taxol or taxol onium salt was added together with increasing concentrations of nonradiolabeled compound. After 30 minutes, the cells were centrifuged, washed with PBS and 1% SDS was added. […] Alternatively, the cells may be lysed by sonication.
# [3] = system: HMEC mammary epithelial cells; assay: XTT dye binding cytotoxicity assay, HMEC; assay type: cell-based; conditions: Homo sapiens, 72 h
# Procedure: as §1, §2
# [4] = system: CHO Chinese hamster ovary cells; assay: XTT dye binding cytotoxicity assay, CHO; assay type: cell-based; conditions: Cricetulus griseus, 72 h
# Procedure: as §1, §2
# [5] = Plasma stability and prodrug reversion (ethyl acetate extraction, HPLC)
# [6] = cited from earlier work
# [7] = Toxicity and survival in vivo (tumor bearing nude mice); conditions: for Toxicity: Table II, in vivo; for % survival: at end of experiments
# [8] = system: U-2511 CNS cancer cells; assay: XTT dye binding cytotoxicity assay, U-2511; assay type: cell-based; conditions: Homo sapiens, 72 h
# Procedure: as §1, §2
# [9] = system: human tumor xenografts; assay: In vivo antitumor effect (human tumor xenografts in nude mice)
# [10] = cited from earlier work; remark: listed apart in the source
# [11] = Comparative toxicities (lethality) in mice
# [12] = system: L-1210 leukemia cells; assay: XTT dye binding cytotoxicity assay, L-1210; assay type: cell-based, mouse
# Procedure: as §1, §2
# [13] = system: NHDF dermal fibroblast; assay: XTT dye binding cytotoxicity assay, NHDF; assay type: cell-based; conditions: Homo sapiens, 72 h
# Procedure: as §1, §2
# [14] = system: M-24 metastatic melanoma cells; assay: XTT dye binding cytotoxicity assay, M-24; assay type: cell-based; conditions: Homo sapiens
# Procedure: as §1, §2
# [15] = system: HL-60 promyelocytic leukemia cells; assay: XTT dye binding cytotoxicity assay, HL-60; assay type: cell-based; conditions: Homo sapiens
# Procedure: as §1, §2
# [16] = system: Molt-4 T-cell leukemia cells; assay: XTT dye binding cytotoxicity assay, Molt-4; assay type: cell-based; conditions: Homo sapiens
# Procedure: as §1, §2
# [17] = cited from earlier work; remark: listed apart in the source
# [18] = system: SK-Mel-28 melanoma cells; assay: XTT dye binding cytotoxicity assay, SK-Mel-28; assay type: cell-based; conditions: Homo sapiens
# Procedure: as §1, §2
# [19] = system: UCLA-P3 lung carcinoma cells; assay: XTT dye binding cytotoxicity assay, UCLA-P3; assay type: cell-based; conditions: Homo sapiens
# Procedure: as §1, §2
# [20] = system: 786-0 renal cell carcinoma cells; assay: XTT dye binding cytotoxicity assay, 786-0; assay type: cell-based; conditions: Homo sapiens
# Procedure: as §1, §2
# [21] = system: HT-29 colon carcinoma cells; assay: XTT dye binding cytotoxicity assay, HT-29; assay type: cell-based; conditions: Homo sapiens
# Procedure: as §1, §2
# [22] = system: tubulin; assay: Tubulin polymerization-depolymerization (microtubule assembly-disassembly) assay; assay type: biochemical, calf; conditions: CaCl2, 10^-6 M drug, 37° C., in words
# [23] = system: PC-3 prostate carcinoma tumor xenograft; assay: PC-3 prostate tumor xenograft in nude mice
# Procedure: (§3) Athymic nude mice were purchased from Harlan-Sprague-Dawley. The animals were housed in microisolated cases under positive air pressure and all manipulations and drug treatments were performed in a laminar flow cabinet. Tumor cells were grown under the above tissue culture conditions. Cell suspensions in RPMI medium were injected S./C. Treatment was started one day after inoculation by i.p. injection of 400 μl drug solutions. Tumors were measured 3 times weekly in two dimensions, using calipers and tumor volume as calculated using the formula (V=w^2 ×L×(3.142).
# The tumor model was generated from an ATTC PC-3 prostate carcinoma cell line that was maintained under standard cell proliferation conditions, viz. 37° C., 5% carbon dioxide in sterile air. Each cohort was comprised of eight randomly chosen female athymic nude mice, for a total population size of twenty four. Hemocytometer counted cells, suspended in Hanks mediun (Gibco, Grand Island N.Y.) were implanted S.C. (10^6 cells in 0.4 mL per mouse). Solid tumor growth was measured on each third day. Equimolar amounts of the test compounds (1.0 mM, 400 μL) were injected i.p. on days 1, 3, 5, 7, 9, and 11 using the following media:
# (.smallcircle.): Control, 5% dextrose in 5× distilled water (5 DW)
# (Δ): Taxol (18.0 mg/kg of animal weight or approximately 1.260 mg/m^2) suspended in Cremaphor/D5W
# Inferences about efficacy were drawn by ANOVA followed by protected t-test. […] Data shown as mean value with standard error.
# [24] = In vivo elimination in BALB/C mice; conditions: 24 hours after injection
# Procedure: C-2'-MPA-Taxol (1 mM in 0.9% saline solution, 400 μL) was injected along with tritiated taxol at 32000 cpm into normal BALB/C mice (4 mice each) housed in metabolic cages and the urine and feces were measured periodically in a scintillation counter using Achillea scintillation fluid.
# The antitumor activity of the onium salts of taxol were assessed in nude mice bearing tumors of human A-549 lung adenocarcinomas, Ovcar-3 ovarian carcinoma, and PC-3 prostate carcinoma cells. […] FIG. 5 illustrates antiproliferation results for 2'-MPA-3-thiophene-taxol (4) and 2' MPA taxol (2) for the Ovcar-3 human tumor xenograft. […] FIG. 6, summarizes the results for a PC-3, prostate tumor model study. Taxol was compared with both the 2'- and 7-substituted oxonium salts. […] Tritiated taxol and 2' MPA-taxol were used in drug elimination experiments in normal BALB/C mice. In both groups of mice of four animals each, only 4-5% of the administered radioactivity was measured in the combined urine and feces 24 hours after injection.
# [25] = system: A-549 lung carcinoma cells; assay: XTT dye binding cytotoxicity assay, A-549; assay type: cell-based; conditions: Homo sapiens
# Procedure: as §1, §2
# [26] = system: SK-N-SH neuroblastoma cells; assay: XTT dye binding cytotoxicity assay, SK-N-SH; assay type: cell-based; conditions: Homo sapiens, 72 h
# Procedure: as §1, §2
# [27] = system: PC-3 prostate carcinoma cells; assay: XTT dye binding cytotoxicity assay, PC-3; assay type: cell-based; conditions: Homo sapiens, 72 h
# Procedure: as §1, §2
# [28] = system: Capan 1 pancreas cancer cells; assay: XTT dye binding cytotoxicity assay, Capan 1; assay type: cell-based; conditions: Homo sapiens
# Procedure: as §1, §2
# [29] = system: BT-549 breast carcinoma cells; assay: XTT dye binding cytotoxicity assay, BT-549; assay type: cell-based; conditions: Homo sapiens
# Procedure: as §1, §2
# [30] = system: SIHA squamous carcinoma cells; assay: XTT dye binding cytotoxicity assay, SIHA; assay type: cell-based; conditions: Homo sapiens, 72 h
# Procedure: as §1, §2
# [31] = system: RPMI-7666 blood lymphoblasts; assay: XTT dye binding cytotoxicity assay, RPMI-7666; assay type: cell-based; conditions: Homo sapiens, 72 h
# Procedure: as §1, §2
# [32] = in vitro; conditions: human, plasma
# [33] = system: tumor cell lines; assay: Cytotoxicity, summary over tumor cell lines (XTT); assay type: cell-based, human and murine
# Procedure: Antiproliferative activities of the onium salts were determined using the XTT dye binding assay. Cells were harvested with trypsin/EDTA (Irvine Scientific), washed, resuspended in the appropriate medium, and counted in a hemocytometer using Trypan Blue to determine viability. […] After 72 hours, XTT binding dye was added and incubation was continued for 4 hours. The inhibition of cell proliferation was quantified using a Molecular Devices Microplate Reader. […] The concentration of drug which inhibited growth of cells by 50% was calculated from duplicated determinations.
# [34] = system: A549 lung adenocarcinoma tumor xenograft; assay: Human lung adenocarcinoma A549 xenograft in nude mice; conditions: 1.0 mM, 400 μL i.p. days 1, 3, 5, 7, 9, 11
# Procedure: as §3
# The tumor model was generated from A549 cell line, an ATTC that was maintained under standard cell proliferation conditions (37° C., 5% carbon dioxide in sterile air). Each cohort was comprised of six randomly chosen female athymic nude mice, for a total population size of twenty four mice. Hemocytometer counted cells, suspended in Hanks mediun (Gibco, Grand Island N.Y.) were implated S.C. (10^6 cells in 0.4 mL per mouse). Solid tumor growth was measured on each third day. Equimolar amounts of the test compounds (1.0 mM, 400 μL) were injected i.p. on days 1, 3, 5, 7, 9, and 11 using the following media:
# (Δ): Control, saline in 5× distilled water (5 DW)
# (.smallcircle.): Taxol (18.0 mg/kg of animal weight or approximately 1,260 mg/m^2) suspended in Cremaphor/D5W […]
smiles,measurement,setting,value
"CC(=O)O[C@H]1C(=O)[C@@]2(C)[C@H]([C@H](OC(=O)c3ccccc3)[C@]3(O)C[C@H](OC(=O)[C@H](O)[C@@H](NC(=O)c4ccccc4)c4ccccc4)C(C)=C1C3(C)C)[C@]1(OC(C)=O)CO[C@@H]1C[C@@H]2O [Compound 1, reference compound]",IC50,"[1]; OVCAR-3, 72 h",0.74 nM
same,Kd,[2],5 nM
same,IC50,[3],62 nM
same,IC50,[4],615 nM
same,Plasma Stability t1/2,"[5]; human plasma, 37° C., Table II",stable
same,recovery,"[5]; human, plasma",95%
same,dose limiting toxicity,[6]; 300 mg/m^2 /day,peripheral neuropathy
same,tolerated taxol dose,"[6]; 24 hour i.v. infusion every 3 weeks, with G-CSF",250 mg/m^2
same,Toxicity,[7],high
same,% survival,[7],0-20%
same,in vivo tolerance / toxicity in words,[7]; nude mice,both visual toxicity and animal weight losses were observed
same,IC50,[8],15.6 nM
same,in vivo antitumor efficacy in words,[9],"when taxol was administered at somewhat lower doses, its efficacy was significantly diminished"
same,dose-limiting toxicity,"[10]; pediatric patients, 24 hour i.v. infusion",neurotoxicity
same,dose at which dose-limiting toxicity occurred,"[10]; pediatric patients, neurotoxicity",420 mg/m^2
same,recommended phase II dose,[10]; pediatric population,350 mg/m^2 /d
same,"50% lethality, equivalent dose","[11]; mice, four times on alternating days, approximately equivalent dose","1,120-1,260 mg/m^2"
same,LD50,"[11]; mouse, in vivo",16 to 18 mg/kg
same,IC50,"[12]; Mus musculus, L1210, 72 h",3.24 nM
same,IC50,[13],765 nM
same,IC50,"[14]; M24, 72 h",0.018 nM
same,IC50,"[15]; HL-60, 72 h",0.061 nM
same,IC50,"[16]; MOLT-4, 72 h",0.096 nM
same,solubility in aqueous media,[17],low solubility
same,IC50,"[18]; SK-MEL-28, 72 h",524 nM
same,IC50,"[19]; UCLA P-3, 72 h",0.66 nM
same,IC50,"[20]; 786-0, 72 h",10.8 nM
same,IC50,"[21]; HT-29, 72 h",1.16 nM
same,inhibition of calcium chloride induced depolymerization of microtubules,[22]; listed as taxol,essentially complete inhibition of depolymerization; also recorded: suppressed by taxol
same,"antitumor activity, PC-3","[23]; 1.0 mM, 400 μL i.p., established tumors",regression of established tumors
same,"mice surviving treatment, PC-3",[23]; in vivo,3 out of 8 mice
same,administered radioactivity in the combined urine and feces,[24],4-5%
same,IC50,"[25]; A549, 72 h",5.79 nM
same,IC50,[26],2.38 nM
same,IC50,[27],1.01 nM
same,IC50,"[28]; CAPAN-1, 72 h",0.967 nM
same,IC50,"[29]; BT-549, 72 h",0.066 nM
same,IC50,[30]; SiHa,8.89 nM
same,IC50,[31],584 nM
CC(=O)O[C@H]1C(=O)[C@@]2(C)[C@H]([C@H](OC(=O)c3ccsc3)[C@]3(O)C[C@H](OC(=O)[C@H](Oc4cccc[n+]4C)[C@@H](NC(=O)c4ccccc4)c4ccccc4)C(C)=C1C3(C)C)[C@]1(OC(C)=O)CO[C@@H]1C[C@@H]2O [Compound 4],IC50,"[1]; OVCAR-3, ovarian carcinoma, 72 h, read-out: IC50",0.86 nM
same,IC50,"[3]; mammary epithelial cells (untransformed), read-out: IC50",219 nM
same,IC50,"[4]; CHO, Chinese hamster ovary (untransformed), read-out: IC50",815 nM
same,Toxicity,[7],low
same,% survival,[7],100%
same,IC50,"[8]; U-2511, CNS cancer, read-out: IC50",31.7 nM
same,IC50,"[12]; L1210, L-1210, mouse leukemia, 72 h, read-out: IC50",1.2 nM
same,IC50,"[13]; dermal fibroblast (untransformed), read-out: IC50",655 nM
same,IC50,"[14]; M24, M-24, melanoma-metastatic, 72 h, read-out: IC50",0.54 nM
same,IC50,"[15]; HL-60, promyelocytic leukemia, 72 h, read-out: IC50",0.12 nM
same,IC50,"[16]; Molt-4, T-cell leukemia, 72 h, read-out: IC50",0.066 nM
same,IC50,"[18]; SK-Mel-28, melanoma, 72 h, read-out: IC50",110 nM
same,IC50,"[19]; UCLA P-3, UCLA-P3, lung carcinoma, 72 h, read-out: IC50",1.88 nM
same,IC50,"[20]; 786-0, renal cell carcinoma, 72 h, read-out: IC50",11.5 nM
same,IC50,"[21]; HT-29, colon carcinoma, 72 h, read-out: IC50",0.99 nM
same,inhibition of calcium chloride induced depolymerization of microtubules,[22],behaved in this assay similar to the C-2'-MPA isomer of taxol (2)
same,IC50,"[25]; A549, A-549, lung carcinoma, 72 h, read-out: IC50",2.35 nM
same,IC50,"[26]; neuroblastoma, read-out: IC50",4.18 nM
same,IC50,[27],1.15 nM
same,IC50,"[28]; Capan 1, pancreas cancer, 72 h, read-out: IC50",0.35 nM
same,IC50,"[29]; BT-549, breast carcinoma, 72 h, read-out: IC50",0.11 nM
same,IC50,"[30]; SIHA, squamous carcinoma, read-out: IC50",7.55 nM
same,half-life,[32],14 min
same,recovery,[32],23%
same,IC50,"[31]; RPMI-7666, blood lymphoblasts (untransformed), read-out: IC50",408 nM
CC(=O)O[C@H]1C(=O)[C@@]2(C)[C@H]([C@H](OC(=O)c3ccccc3)[C@]3(O)C[C@H](OC(=O)[C@H](OC(=O)CS(=O)(=O)C(=O)O)[C@@H](NC(=O)c4ccccc4)c4ccccc4)C(C)=C1C3(C)C)[C@]1(OC(C)=O)CO[C@@H]1C[C@@H]2O [Compound 7],half-life,"[5]; human, plasma",100 min
same,recovery,"[5]; human, plasma",34%
same,Toxicity,[7],low
same,% survival,[7],75%
same,in vivo antitumor efficacy in words,[9],completely fails to exhibit any antitumor effects in vivo
same,cytotoxicity in words,[33],high cytotoxicity profile
same,"tumor growth inhibition, A549",[34],no significant growth inhibition
